Experiment: toxicity of isoprenoids (compatibility with the body)
Conditions: in concentrations of 10 μmol/l
Source text: Thus, for example, lycopene and ubichinon are already toxic in concentrations of 10 μmol/l. Squalene, on the other hand, is not toxic, even in concentrations of 100 μmol/l.

With ubichinon the toxicity was “toxic”.

— patent US8486434B2, “Medical implant containing an antioxidative substance” (Biotronik VI Patent AG, priority 2009, dated 2013)
